# Measured values taken from article PMC11901700, “A Sweet Almond Globulin Multifunctional Peptide: Identification, In Silico Screening, Restraint Mechanisms to Keap1 and ACE, and Antihypertensive and Ferrous Transport Efficiency” (Nutrients, 2025).
# Where no end group is shown, it is not given here.
# Tests used:
# ACE (from rabbit lungs) = target: T1, ACE (from rabbit lungs) (Oryctolagus cuniculus, UniProt P12822); assay: ACE inhibitory ability (hippuric acid method); type: biochemical; settings: hippuric acid method, HHL substrate, absorbance at 228 nm; N = 3; read-out: ACE inhibitory activity (IC50)
# T1 construct: ACE (0.1 U, from rabbit lungs, purity > 99.7%, CAS: 9015-82-1) was obtained from Sigma-Aldrich; purchased Sigma-Aldrich (St. Louis, MO, USA); host or cells: rabbit lung tissue
# T1 sequence (P12822 34-1310): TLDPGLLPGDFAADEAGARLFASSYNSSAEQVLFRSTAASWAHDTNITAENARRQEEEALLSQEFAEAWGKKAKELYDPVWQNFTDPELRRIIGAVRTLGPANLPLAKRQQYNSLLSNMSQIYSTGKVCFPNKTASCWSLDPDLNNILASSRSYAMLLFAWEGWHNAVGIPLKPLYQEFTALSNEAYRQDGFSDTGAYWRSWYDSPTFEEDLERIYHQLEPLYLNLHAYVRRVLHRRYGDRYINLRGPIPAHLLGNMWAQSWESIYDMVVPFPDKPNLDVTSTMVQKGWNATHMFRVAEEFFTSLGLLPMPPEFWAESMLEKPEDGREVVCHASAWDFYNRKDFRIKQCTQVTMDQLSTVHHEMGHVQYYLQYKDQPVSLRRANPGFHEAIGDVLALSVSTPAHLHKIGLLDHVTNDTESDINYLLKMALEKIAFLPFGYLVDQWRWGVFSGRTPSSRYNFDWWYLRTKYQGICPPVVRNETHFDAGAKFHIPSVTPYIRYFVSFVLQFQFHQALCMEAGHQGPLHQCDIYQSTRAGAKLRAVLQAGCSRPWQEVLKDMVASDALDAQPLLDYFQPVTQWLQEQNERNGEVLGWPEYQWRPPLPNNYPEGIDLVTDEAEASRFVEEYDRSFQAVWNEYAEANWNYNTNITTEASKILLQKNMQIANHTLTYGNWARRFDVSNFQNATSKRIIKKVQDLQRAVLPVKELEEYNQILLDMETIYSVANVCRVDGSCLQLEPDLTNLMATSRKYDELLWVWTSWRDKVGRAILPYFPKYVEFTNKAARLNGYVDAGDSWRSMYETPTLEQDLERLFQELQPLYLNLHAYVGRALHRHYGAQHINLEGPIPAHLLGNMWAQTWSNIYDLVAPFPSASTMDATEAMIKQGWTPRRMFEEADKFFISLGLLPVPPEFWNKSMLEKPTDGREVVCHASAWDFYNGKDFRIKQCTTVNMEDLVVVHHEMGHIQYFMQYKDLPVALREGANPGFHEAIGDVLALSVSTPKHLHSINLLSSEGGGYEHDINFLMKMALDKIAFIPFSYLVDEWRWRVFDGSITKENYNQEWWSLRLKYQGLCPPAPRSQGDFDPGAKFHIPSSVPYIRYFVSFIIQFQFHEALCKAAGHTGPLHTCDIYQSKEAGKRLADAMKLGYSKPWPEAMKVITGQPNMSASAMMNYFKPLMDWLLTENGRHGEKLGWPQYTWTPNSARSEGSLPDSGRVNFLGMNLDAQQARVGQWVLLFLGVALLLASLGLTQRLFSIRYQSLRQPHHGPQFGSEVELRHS
# Text: The hippuric acid method was used to measure the samples’ inhibitory ability towards ACE, following the same procedures as Zheng et al.. The absorbance at 228 nm was the hippuric acid content and represented ACE activity; therefore, the inhibitory ability of samples towards ACE was defined as the percentage of reduction in the absorption at 228 nm between the control and sample groups. Moreover, the ACE inhibitory kinetic of SAGH peptides was investigated by employing a Lineweaver–Burk plot with N-hippuryl-L-histidyl-L-leucine (HHL, 0.13–1.32 mmol/L) as the substrate.
# As described by Wu et al., the simulative gastric digestive fluid consisted of sodium chloride (0.18 mol/L), ultrapure water (180 mL), and 0.40 mg/mL of pepsin. The simulation intestinal digestive juice was composed of NaHCO3, ([…]), bile salt (3 g/100 mL), pancreatin (0.35 mg/mL), and 180 mL of ultrapure water. The antihypertensive and antioxidant SAGH peptides (5 mg/mL, 60 mL) were first hydrolyzed using 150 mL of simulative gastric fluid at 37 °C and 140 rpm for 90 min. The mixture was adjusted to pH 7.0, and 180 mL of the simulative intestinal hydrolysis fluid was added and stirred at 37 °C for 2 h. After boiling for 6 min, the mixture was cooled with running water to room temperature. The ACE inhibition capacity and antioxidant ability of the treated SAGH peptides were detected and compared to those of the […] SAGH peptides.
# [1] = Hydroxyl radical scavenging activity (β-deoxyribose oxidation method); type: physicochemical; settings: at 100 μg/mL
# Protocol: (§1) As described by Wang et al. and Vásquez et al., the hydroxyl (·OH) and superoxide ( O2−· ) radicals’ scavenging activity was measured using the β-deoxyribose oxidation and pyrogallol auto-oxidation methods, respectively. The comparison was conducted when the samples were replaced by glutathione (0.1 mg/mL).
# [2] = Superoxide radical scavenging activity (pyrogallol auto-oxidation method); type: physicochemical; settings: at 100 μg/mL
# Protocol: as §1
# [3] = Reducing power (potassium ferricyanide method); type: physicochemical; settings: at 100 μg/mL, absorbance at 700 nm
# Text: The potassium ferricyanide method was employed to determine the reducing power of the SAGH peptides at the same conditions reported by Wang et al., where the absorbance at 700 nm represented the reducing power.
# [4] = Gastrointestinal stability of peptide–ferrous chelate (ferrous solubility in simulated digestion); type: in vitro ADME
# Protocol: Next, the intestinal digestive fluid was added, and digestion was continued at pH 6.8 for 2 h in the EDZF-C002 thermostatic vibrator ([…], 175 rpm).
# [5] = system: spontaneously hypertensive rats (SHRs); assay: Effects on blood pressures of spontaneously hypertensive rats; type: in vivo, rat
# Protocol: Spontaneously hypertensive rats (SHRs, each weighting approximately 250 g, 14 weeks old) were obtained from Vitonglihua Test Animal Biotech. Co., Ltd. (Beijing, China) and used to investigate the hypotensive ability of ACE inhibitory and antioxidant SAGH peptides. After 7 days of adaptation, the SHRs were assigned to the blank, positive, SAGH peptides, and SAGH peptide–ferrous chelate groups (each group contained six SHRs), which were orally administered NaCl ([…]), captopril (14 mg per body weight kg), peptides (50, 150, and 200 mg per body weight kg), and peptide–ferrous chelates (50, 150, and 200 mg per body weight kg) every day, respectively. At 0, 120, 360, and 600 min after oral administration, the systolic and diastolic blood pressures and heart rates of the SHRs were measured using a NIBP-M1 Rat-tail noninvasive blood pressure monitor (Yuyan Scientific Instrument Co., Ltd., Shanghai, China) following the tail cuff method.
# [6] = listed as PMYGGGMV–ferrous chelates
substance,measurement,setting,value
PMYGGGMV–ferrous chelate: chelate prepared by reacting the peptide with FeCl2 at pH 6.5 (also: ferrous iron chelate (reaction with FeCl2)),IC50,ACE (from rabbit lungs),116 µM
same,·OH Scavenging Activity (%) Before Gastrointestinal Digestion,[1],57.69 ± 0.07 d %
same,·OH Scavenging Activity (%) Before Gastrointestinal Digestion,[1]; [6],60.04%
same,Superoxide Radical Scavenging Ability (%) Before Gastrointestinal Digestion,[2],75.49 ± 4.09 b %
same,Superoxide Radical Scavenging Ability (%) Before Gastrointestinal Digestion,[2]; [6],75.49%
same,Reducing Power Before Gastrointestinal Digestion,[3],0.179 ± 0.003 e
same,Reducing Power Before Gastrointestinal Digestion,[3]; [6],0.179
same,ferrous solubility during gastric digestion,"[4]; 0–90 min, simulated gastric fluid pH 1.9, 37 °C, 175 rpm, soluble ferrous by o-phenanthroline every 30 min, N = 3",relatively stable
same,ferrous solubility during intestinal digestion,"[4]; 91–240 min, intestinal digestive fluid pH 6.8, soluble ferrous by o-phenanthroline, p < 0.05",apparently decreased
same,ferrous solubility compared with ferrous lactate and ferrous chloride,"[4]; from 90 to 150 min of simulated gastrointestinal digestion, p < 0.05",much higher than those of ferrous lactate and ferrous chloride
same,dose dependence of blood pressure lowering effect,"[5]; oral, 50, 150 and 200 mg/kg body weight, p > 0.05",not dose-dependent
same,effect on diastolic and systolic blood pressures,"[5]; oral, 50–200 mg/kg body weight, from 1 h of dosing, tail cuff method, p < 0.05",apparently lowered the diastolic and systolic blood pressures
